Test in all cases: inhibition of tumour cell growth, NCI panel, 48 h
The subject of assay [1] is SR leukemia.
Assay [2] deals with MOLT-4 leukemia.
In assay [3] the test system is OVCAR-4 ovarian.
Assay [4] relates to OVCAR-8 ovarian.
Assay [5] has as its system 786-0 renal.
Assay [6] has as its system SNB-19 CNS.
Assay [7] relates to EKVX NSCLC.
Assay [8] has as its system HOP-62 NSCLC.
Assay [9] deals with MCF7 breast.
Assay [10] concerns PC-3 prostate.

The source of these data is PubChem BioAssay (NCI).

Where “and” joins values, the source holds several entries; their conditions need not be identical. Identical values can stand only once.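 Method: 48-hour compound exposure of cells in 96-well plates, five concentrations, linear interpolation of endpoints. GI50 is the concentration that inhibits growth by half. The concentration for full growth arrest is given as TGI.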

Take `COc1cc(OC)c(/C=C2\N=C(C)N(Nc3nnc(NN4C(=O)/C(=C/c5c(OC)cc(OC)cc5OC)N=C4C)c4ccccc34)C2=O)c(OC)c1`: the TGI in assay [1], in assay [2], in assay [3], in assay [4], in [5] and in assay [6] was over 100 µM throughout. The TGI in assay [7] and in [8] was over 100 µM throughout.
On to `COC(=O)[C@@H]1CN(C(=O)CCc2ccccc2)C(=O)N1C(=O)OCc1ccccc1`, for which the TGI in assay [1], in [2], in assay [3], in assay [4], in assay [9] and in assay [5] was over 100 µM throughout. Moreover, the TGI in assay [6], in [7] and in assay [8] was over 100 µM throughout.
Regarding `COc1ccc(NC(=O)/C(=N\NC(=O)C[n+]2ccccc2)c2c(O)c3ccc(O)cc3oc2=O)c([N+](=O)[O-])c1`, the TGI in assay [2], in assay [3], in [4], in assay [10], in [9] and in assay [5] was over 100 µM in each case. Further, the TGI in assay [6] and in [7] was over 100 µM throughout.
With `COc1ccc(NS(=O)CCCc2ccccc2)cc1` (stereo unspecified), the TGI in assay [1], in [2], in assay [3], in assay [4], in assay [9] and in assay [5] was over 100 µM in each case. Also, the TGI in assay [6], in assay [7] and in [8] was over 100 µM each time.
Turning to `CN(C)c1ccc(N=Nc2ccc3nc[nH]c3c2)cc1`, the TGI in assay [1] is 87.5 µM; in assay [2], over 100 µM; in assay [3] it was 68.5 µM; in [4], over 100 µM; in assay [10], over 100 µM; in assay [5] it was 36.1 µM. For the same compound, the TGI in assay [6] and in assay [7] was over 100 µM each time.
Regarding `Cn1c(/C=C(\O)c2ccc(Cl)cc2)nc2ccccc21`, the TGI in assay [1], in assay [2], in assay [3], in [4], in assay [5] and in [6] was over 100 µM each time. Moreover, in assay [7], the TGI turned out to be 84.8 µM.
For `CCO[C@]12C[C@H](OC)[C@@]3(O)CC(C1[C@H]3OCc1ccccc1)C13C4C2[C@H](OC)C1[C@](COC)(CN4CC)[C@H](O)C[C@@H]3OC` (stereo partly specified), the TGI in [1], in assay [2], in assay [3], in assay [4], in assay [5] and in [6] was over 100 µM in each case. Also, the TGI in [7] and in assay [8] was over 100 µM in each case.
As for `CC1=C(N2CC2)C(=O)c2nc3n(c2C1=O)CCC3OC(=O)CCl` (stereo unspecified), the TGI in assay [1] came to 13.6 µM; in [2], 5.89 µM; in assay [3], 0.218 µM; in [4], 0.165 µM; in [9], 0.0468 µM; in [5] it was 0.191 µM. Further, the TGI in [6] worked out at 0.684 µM; in assay [7], 0.551 µM; in assay [8], 0.145 µM.
In the case of `NC(N)=N/N=C/c1c(-c2ccccc2)nc2n1ccc1nc(-c3ccccc3)c(/C=N/N=C(N)N)n12`, the TGI in [2], in [3], in assay [4], in assay [10], in assay [9] and in assay [5] was over 100 µM throughout. Further, the results for the TGI in assay [6], in [7] and in assay [8] were over 100 µM, 65.7 µM and over 100 µM, respectively.
As for `CCOC1(COP(=O)(OCc2ccccc2)OCc2ccccc2)COC(COP(=O)(OCc2ccccc2)OCc2ccccc2)(OCC)CO1` (stereo unspecified), the TGI in [1], in [2], in assay [3], in assay [4], in assay [5] and in assay [6] was over 100 µM in each case. Moreover, the TGI was 9.43 µM in assay [7] and over 100 µM in assay [8].
Consider `CC(=O)C1=CSC2[C@H](NC(=O)Cc3ccccc3)C(=O)N2C1C(=O)OC(c1ccccc1)c1ccccc1` (stereo partly specified), for which the TGI in [1], in assay [2], in assay [3], in assay [4], in [5] and in assay [6] was over 100 µM in each case. Also, the TGI in assay [7] and in [8] was over 100 µM each time.
On to `COc1cc2cc(C(=O)N3CC(CCl)c4ccc(O)cc43)[nH]c2c(OC)c1OC` (stereo unspecified), for which the TGI is over 100 µM in assay [1]; 0.0253 µM in assay [4]; 0.121 µM in [5]; 0.453 µM and 0.21 µM in [6]; 0.35 µM and 0.749 µM in [7]. The GI50 in [7] was 0.285 µM.
For `COc1cc2c(c(OC)c1OC)C(=O)[C@H](O)[C@H]2NC(N)=O`, the TGI in assay [2], in assay [4], in assay [10], in assay [9], in [5] and in [6] was over 100 µM throughout. The TGI in [7] and in assay [8] was over 100 µM throughout.
For the compound `C=C1CC2OC2(C(=O)O[C@H]2CCC3[C@@H]4CCC5=CC(=O)CC[C@]5(C)C4CC[C@@]32C)C1=O` (stereo partly specified), the TGI is 7.65 µM in assay [1]; 5.96 µM in assay [2]; 18.4 µM in [3]; 45.1 µM in [4]; 4.83 µM in assay [5]; 36.3 µM in [6]. In addition, the figures for the TGI in assay [7] and in assay [8] were 48 µM and 44.4 µM, respectively.
In the case of `CN(CCO)c1nc2c(c(=O)[nH]1)CCC2`, the TGI in assay [1], in assay [2], in assay [3], in assay [4], in assay [5] and in assay [6] was over 100 µM each time. Moreover, the TGI in [7] and in [8] was over 100 µM each time.
